Assay results from patent publication US6313111A, “Substituted 6H-1,3,4-thiadiazine-2-amines, the use thereof as anaesthetising, cardiovascular and hypometabolic agents, and pharmaceutical composition containing them” (priority 1998, dated 2001).
Where a name gives a salt, the structure may show the parent alone.

Key:
[1] = behaviour of mice after injection of compound 1; format: in vivo, mice of the BALB line; conditions: for behaviour of mice: 140 mg/kg
Description: In all cases tests were carried out on mice of the BALB line of 3-4 month age. Non-toxic doses of compounds under test varying from 60 to 400 mg/kg were used in all experiments. In the case of water-soluble compounds, aqueous solutions of the test compounds were injected intraperitoneally (i.p.), while water-insoluble compounds were introduced orally (p.o.).
The behaviour of mice to injection of compound 1 at 140 mg/kg dosage is as follows: […]

[2] = rectal (body) temperature of mice measured with medicinal electrothermometer TREM-1; format: in vivo, mice of the BALB line
Description: In all cases tests were carried out on mice of the BALB line of 3-4 month age. […] In the case of water-soluble compounds, aqueous solutions of the test compounds were injected intraperitoneally (i.p.), while water-insoluble compounds were introduced orally (p.o.).
Rectal temperature changes (absolute magnitues in ° C.) were measured using a medicinal electrothermometer TREM-1 (Table 1). The rate of oxygen consumption was monitored by measuring concentration of oxygen in a closed testing unit with optic-acoustic gas analyser MN 5130. The data on oxygen consumption are given in percents relative to the starting content of oxygen taken as 100%. (Table 2).
Rectal temperature of mice was followed in dynamics after 5, 15, 30, 60, 120, 180, 240, 300, and 360 minutes (Table 3). […] The same decrease in temperature at 190 mg/kg dosage was reached after 15 minutes; in 1.5 hours it reached 22-25° C. and maintained this level over the next 5 hours, that is 13-17° C. below the initial value. After one day, body temperature was restored to the value of 94-96% of initial.

Which behaviour of mice ([1]; 15-180 minutes) does the source give for c1ccc(C2=NN=C(N3CCOCC3)SC2)cc1 [Compound 1, 2-Morpholino-5-phenyl-6H-1,3,4-thiadiazine, hydrobromide] here?
Its behaviour of mice is “akinesia, mio-relaxation, lack of reflexes”.

And the behaviour of mice ([1]; 180-360 minutes)?
The behaviour of mice was “restoration of motor activity”.

And the behaviour of mice ([1]; 5 minutes)?
Its behaviour of mice is “decrease in motor activity, suppression of breathing”.

And the tremor or convulsions ([1]; non-toxic dose levels)?
The tremor or convulsions was “not accompanied by tremor or convulsions”.

What about the “body temperature (T)” value ([2]; 10.0 mg/kg i.p., 0 min) of the same molecule?
The value was 37.5 ± 0.2 °C.

What about the “body temperature (T)” value ([2]; 10.0 mg/kg i.p., 10 min) of the same molecule?
Its value is 37.8 ± 0.1 °C.

And the “body temperature (T)” value ([2]; 10.0 mg/kg i.p., 20 min)?
Its value is 37.4 ± 0.2 °C.

And the “body temperature (T)” value ([2]; 10.0 mg/kg i.p., 30 min)?
Its value is 37.3 °C.

What about the “body temperature (T)” value ([2]; 10.0 mg/kg i.p., 40 min) of the same molecule?
The value was 37.5 ± 0.1 °C.

And the “body temperature (T)” value ([2]; 10.0 mg/kg i.p., 60 min)?
Its value is 37.5 ± 0.1 °C.

What about the “body temperature (T)” value ([2]; 10.0 mg/kg i.p., 90 min) of the same molecule?
Its value is 37.4 ± 0.2 °C.

And the “body temperature (T)” value ([2]; 10.0 mg/kg i.p., 120 min)?
Its value is 36.9 ± 0.1 °C.

What about the “body temperature (T)” value ([2]; 10.0 mg/kg i.p., 180 min) of the same molecule?
The value was 36.9 ± 0.2 °C.

What about the “body temperature (T)” value ([2]; 10.0 mg/kg i.p., 210 min) of the same molecule?
The value was 36.4 °C.

What about the “body temperature (T)” value ([2]; 10.0 mg/kg i.p., 240 min) of the same molecule?
Its value is 36.7 ± 0.2 °C.

What about the “body temperature (T)” value ([2]; 10.0 mg/kg i.p., 270 min) of the same molecule?
The value was 36.7 ± 0.2 °C.

What about the “body temperature (T)” value ([2]; 10.0 mg/kg i.p., 300 min) of the same molecule?
Its value is 36.9 ± 0.1 °C.

What about the “body temperature (T)” value ([2]; 10.0 mg/kg i.p., 330 min) of the same molecule?
Its value is 36.8 ± 0.2 °C.

And the “body temperature (T)” value ([2]; 10.0 mg/kg i.p., 390 min)?
Its value is 36.7 ± 0.2 °C.

What about the “body temperature (T)” value ([2]; 35.0 mg/kg i.p., 0 min) of the same molecule?
The value was 37.7 ± 0.2 °C.

And the “body temperature (T)” value ([2]; 35.0 mg/kg i.p., 10 min)?
The value was 37.2 ± 0.2 °C.

And the “body temperature (T)” value ([2]; 35.0 mg/kg i.p., 20 min)?
The value was 36.6 ± 0.4 °C.

What about the “body temperature (T)” value ([2]; 35.0 mg/kg i.p., 30 min) of the same molecule?
The value was 35.9 °C.

And the “body temperature (T)” value ([2]; 35.0 mg/kg i.p., 40 min)?
The value was 36.6 ± 0.1 °C.

And the “body temperature (T)” value ([2]; 35.0 mg/kg i.p., 60 min)?
Its value is 37.0 ± 0.3 °C.

What about the “body temperature (T)” value ([2]; 35.0 mg/kg i.p., 90 min) of the same molecule?
Its value is 37.3 ± 0.1 °C.

What about the “body temperature (T)” value ([2]; 35.0 mg/kg i.p., 120 min) of the same molecule?
Its value is 37.1 ± 0.3 °C.

What about the “body temperature (T)” value ([2]; 35.0 mg/kg i.p., 180 min) of the same molecule?
Its value is 36.9 ± 0.2 °C.

What about the “body temperature (T)” value ([2]; 35.0 mg/kg i.p., 210 min) of the same molecule?
The value was 36.6 ± 0.1 °C.

What about the “body temperature (T)” value ([2]; 35.0 mg/kg i.p., 240 min) of the same molecule?
The value was 36.9 ± 0.4 °C.

And the “body temperature (T)” value ([2]; 35.0 mg/kg i.p., 270 min)?
The value was 36.8 ± 0.1 °C.

What about the “body temperature (T)” value ([2]; 35.0 mg/kg i.p., 300 min) of the same molecule?
The value was 36.9 ± 0.1 °C.

And the “body temperature (T)” value ([2]; 35.0 mg/kg i.p., 330 min)?
The value was 37.2 ± 0.2 °C.

What about the “body temperature (T)” value ([2]; 35.0 mg/kg i.p., 390 min) of the same molecule?
Its value is 37.1 ± 0.1 °C.

What about the “body temperature (T)” value ([2]; 70.0 mg/kg i.p., 0 min) of the same molecule?
Its value is 37.5 ± 0.2 °C.

And the “body temperature (T)” value ([2]; 70.0 mg/kg i.p., 10 min)?
Its value is 36.2 ± 0.3 °C.

And the “body temperature (T)” value ([2]; 70.0 mg/kg i.p., 20 min)?
The value was 35.4 ± 0.5 °C.

And the “body temperature (T)” value ([2]; 70.0 mg/kg i.p., 30 min)?
Its value is 34.5 °C.

What about the “body temperature (T)” value ([2]; 70.0 mg/kg i.p., 40 min) of the same molecule?
The value was 35.0 ± 0.9 °C.

And the “body temperature (T)” value ([2]; 70.0 mg/kg i.p., 60 min)?
The value was 35.6 ± 0.6 °C.

And the “body temperature (T)” value ([2]; 70.0 mg/kg i.p., 90 min)?
Its value is 36.1 ± 0.2 °C.

What about the “body temperature (T)” value ([2]; 70.0 mg/kg i.p., 120 min) of the same molecule?
The value was 37.0 ± 0.2 °C.

And the “body temperature (T)” value ([2]; 70.0 mg/kg i.p., 180 min)?
Its value is 36.7 ± 0.6 °C.

What about the “body temperature (T)” value ([2]; 70.0 mg/kg i.p., 210 min) of the same molecule?
The value was 36.9 °C.

What about the “body temperature (T)” value ([2]; 70.0 mg/kg i.p., 240 min) of the same molecule?
The value was 37.0 ± 0.1 °C.

And the “body temperature (T)” value ([2]; 70.0 mg/kg i.p., 270 min)?
The value was 36.6 ± 0.2 °C.

And the “body temperature (T)” value ([2]; 70.0 mg/kg i.p., 300 min)?
The value was 37.0 ± 0.1 °C.

What about the “body temperature (T)” value ([2]; 70.0 mg/kg i.p., 330 min) of the same molecule?
The value was 37.2 ± 0.1 °C.

And the “body temperature (T)” value ([2]; 70.0 mg/kg i.p., 390 min)?
Its value is 37.1 ± 0.1 °C.

And the “time of maximum drop of body temperature” value ([2]; 140 mg/kg i.p.)?
Its value is 40 to 60 min.

And the “body temperature (T)” value ([2]; 140.0 mg/kg i.p., 0 min)?
Its value is 37.9 ± 0.1 °C.

What about the “body temperature (T)” value ([2]; 140.0 mg/kg i.p., 10 min) of the same molecule?
The value was 34.5 ± 0.2 °C.

What about the “body temperature (T)” value ([2]; 140.0 mg/kg i.p., 20 min) of the same molecule?
The value was 32.6 ± 0.4 °C.

What about the “body temperature (T)” value ([2]; 140.0 mg/kg i.p., 30 min) of the same molecule?
Its value is 30.8 °C.

And the “body temperature (T)” value ([2]; 140.0 mg/kg i.p., 40 min)?
The value was 30.2 ± 0.1 °C.

What about the “body temperature (T)” value ([2]; 140.0 mg/kg i.p., 60 min) of the same molecule?
Its value is 30.0 ± 0.1 °C.

And the “body temperature (T)” value ([2]; 140.0 mg/kg i.p., 90 min)?
Its value is 31.5 ± 0.9 °C.

What about the “body temperature (T)” value ([2]; 140.0 mg/kg i.p., 120 min) of the same molecule?
The value was 33.6 ± 0.7 °C.

What about the “body temperature (T)” value ([2]; 140.0 mg/kg i.p., 180 min) of the same molecule?
The value was 35.2 ± 0.5 °C.

And the “body temperature (T)” value ([2]; 140.0 mg/kg i.p., 210 min)?
The value was 36.1 °C.

And the “body temperature (T)” value ([2]; 140.0 mg/kg i.p., 240 min)?
Its value is 36.5 ± 0.2 °C.

And the “body temperature (T)” value ([2]; 140.0 mg/kg i.p., 270 min)?
Its value is 36.6 ± 0.2 °C.

And the “body temperature (T)” value ([2]; 140.0 mg/kg i.p., 300 min)?
The value was 36.9 ± 0.1 °C.

And the “body temperature (T)” value ([2]; 140.0 mg/kg i.p., 330 min)?
The value was 37.6 ± 0.2 °C.

And the “body temperature (T)” value ([2]; 140.0 mg/kg i.p., 390 min)?
The value was 37.2 ± 0.2 °C.

And the “maximum drop of body temperature” value ([2]; 140 mg/kg i.p., after 40-60 minutes)?
The value was 7-8 °C.

What about the “body temperature (T)” value ([2]; 190 mg/kg (1/2 LD16) i.p., 5 min) of the same molecule?
Its value is 34.9 ± 0.0 °C.

And the “body temperature (T)” value ([2]; 190 mg/kg (1/2 LD16) i.p., 15 min)?
Its value is 30.8 ± 0.2 °C.

What about the “time to reach the same decrease in temperature (7-8° C.)” value ([2]; 190 mg/kg i.p.) of the same molecule?
Its value is 15 min.
